Measurements: ChEMBL document CHEMBL1201862, “PubChem BioAssay data set” (2004)
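Protocol summary: plate cells (96-well), add compound at 5 concentrations, incubate 48 h, interpolate endpoints linearly. Here, GI50 denotes the concentration required for 50% inhibition of growth.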 The source made the active and inactive calls. Cut-off read from the data, not from the text of the source: active = GI50 up to about 1.1 µM and inactive = higher.

What was measured:
Experiment in all cases: NCI-60 cell line screen, 48 h
SNB-75 = test system: SNB-75
SF-268 = test system: SF-268
SF-295 = test system: SF-295
KM12 = test system: KM12
MOLT-4 = test system: MOLT-4
HL-60 = test system: HL-60
UACC-62 = test system: UACC-62
IGROV-1 = test system: IGROV-1
SNB-78 = test system: SNB-78
RXF 393 = test system: RXF 393
NCI-H460 = test system: NCI-H460
CCRF-CEM = test system: CCRF-CEM
SW-620 = test system: SW-620
786-0 = test system: 786-0
HOP-18 = test system: HOP-18
SK-MEL-28 = test system: SK-MEL-28
SK-MEL-5 = test system: SK-MEL-5
SK-MEL-2 = test system: SK-MEL-2
OVCAR-5 = test system: OVCAR-5
OVCAR-3 = test system: OVCAR-3
OVCAR-4 = test system: OVCAR-4
XF498 = test system: XF498
HT-29 = test system: HT-29
HOP-92 = test system: HOP-92
SF-539 = test system: SF-539
KM-20L2 = test system: KM-20L2
CAKI-1 = test system: CAKI-1
LXFL 529 = test system: LXFL 529
EKVX = test system: EKVX
NCI-H226 = test system: NCI-H226
SK-OV-3 = test system: SK-OV-3
SNB-19 = test system: SNB-19
UACC-257 = test system: UACC-257
K562 = test system: K562
HCT-15 = test system: HCT-15
TK-10 = test system: TK-10
ACHN = test system: ACHN
DMS-273 = test system: DMS-273
RPMI-8226 = test system: RPMI-8226
OVCAR-8 = test system: OVCAR-8
UO-31 = test system: UO-31
A498 = test system: A498
NCI-H23 = test system: NCI-H23
HOP-62 = test system: HOP-62
LOX IMVI = test system: LOX IMVI
A549 = test system: A549
M19-MEL = test system: M19-MEL
U-251 = test system: U-251
SN12C = test system: SN12C
M14 = test system: M14
Malme-3M = test system: Malme-3M
COLO 205 = test system: COLO 205
NCI-H522 = test system: NCI-H522
HCC 2998 = test system: HCC 2998
DLD-1 = test system: DLD-1

C[C@]12Cc3conc3C(O)=C1CC[C@@H]1C2CC[C@@]2(C)C1CC[C@@H]2O (stereo partly specified)
GI50 (SNB-75): 9.77 µM (inactive) | GI50 (SF-268): 14.6 µM (inactive) | GI50 (SF-295): 18 µM (inactive) | GI50 (KM12): 12 µM (inactive) | GI50 (MOLT-4): 6.68 µM (inactive) | GI50 (HL-60): 2.55 µM (inactive) | GI50 (UACC-62): 4.99 µM (inactive) | GI50 (IGROV-1): 26 µM (inactive) | GI50 (SNB-78): 22.2 µM (inactive) | GI50 (RXF 393): 17.4 µM (inactive) | GI50 (NCI-H460): 12.6 µM (inactive) | GI50 (CCRF-CEM): 7.62 µM (inactive) | GI50 (SW-620): 15.5 µM (inactive) | GI50 (786-0): 16.1 µM (inactive) | GI50 (HOP-18): 41 µM (inactive) | GI50 (SK-MEL-28): 12.1 µM (inactive) | GI50 (SK-MEL-5): 10.5 µM (inactive) | GI50 (SK-MEL-2): 0.634 µM (active) | GI50 (OVCAR-5): 50.2 µM (inactive) | GI50 (OVCAR-3): 6.22 µM (inactive) | GI50 (OVCAR-4): 31.6 µM (inactive) | GI50 (XF498): 15 µM (inactive) | GI50 (HT-29): 19.7 µM (inactive) | GI50 (HOP-92): 22.8 µM (inactive) | GI50 (SF-539): 15.8 µM (inactive) | GI50 (KM-20L2): 29.5 µM (inactive) | GI50 (CAKI-1): 8.24 µM (inactive) | GI50 (LXFL 529): 15 µM (inactive) | GI50 (EKVX): 17.5 µM (inactive) | GI50 (NCI-H226): 18 µM (inactive) | GI50 (SK-OV-3): 31.3 µM (inactive) | GI50 (SNB-19): 31.4 µM (inactive) | GI50 (UACC-257): 21.3 µM (inactive) | GI50 (K562): 3.66 µM (inactive) | GI50 (HCT-15): 5.65 µM | GI50 (TK-10): 24.3 µM (inactive) | GI50 (ACHN): 23.3 µM (inactive) | GI50 (DMS-273): 5.22 µM (inactive) | GI50 (RPMI-8226): 1.93 µM (inactive) | GI50 (OVCAR-8): 25.8 µM (inactive) | GI50 (UO-31): 15.3 µM (inactive) | GI50 (A498): 9.12 µM (inactive) | GI50 (NCI-H23): 18.1 µM (inactive) | GI50 (HOP-62): 50.4 µM (inactive) | GI50 (LOX IMVI): 4.5 µM (inactive) | GI50 (A549): 17.9 µM (inactive) | GI50 (M19-MEL): 11.7 µM (inactive) | GI50 (U-251): 20 µM (inactive) | GI50 (SN12C): 28.9 µM (inactive) | GI50 (M14): 12.4 µM (inactive) | GI50 (Malme-3M): 9.4 µM (inactive) | GI50 (COLO 205): 32.7 µM (inactive) | GI50 (NCI-H522): 2.95 µM (inactive)

O=C(O)CCNS(=O)(=O)c1ccc2ccccc2c1
GI50 (SNB-75): > 100 µM (inactive) | GI50 (SF-268): > 100 µM (inactive) | GI50 (SF-295): > 100 µM (inactive) | GI50 (KM12): > 100 µM (inactive) | GI50 (MOLT-4): > 100 µM (inactive) | GI50 (HL-60): > 100 µM (inactive) | GI50 (UACC-62): > 100 µM (inactive) | GI50 (IGROV-1): > 100 µM (inactive) | GI50 (RXF 393): > 10 µM (inactive) | GI50 (NCI-H460): > 100 µM (inactive) | GI50 (CCRF-CEM): > 100 µM (inactive) | GI50 (SW-620): > 100 µM (inactive) | GI50 (786-0): > 100 µM (inactive) | GI50 (HOP-18): > 100 µM (inactive) | GI50 (SK-MEL-28): > 100 µM (inactive) | GI50 (SK-MEL-5): > 100 µM (inactive) | GI50 (SK-MEL-2): > 100 µM (inactive) | GI50 (OVCAR-5): > 100 µM (inactive) | GI50 (HCC 2998): > 100 µM (inactive) | GI50 (OVCAR-3): > 100 µM (inactive) | GI50 (OVCAR-4): > 100 µM (inactive) | GI50 (XF498): > 100 µM (inactive) | GI50 (HT-29): > 100 µM (inactive) | GI50 (HOP-92): > 100 µM (inactive) | GI50 (SF-539): > 100 µM (inactive) | GI50 (KM-20L2): > 100 µM (inactive) | GI50 (CAKI-1): > 100 µM (inactive) | GI50 (LXFL 529): > 100 µM (inactive) | GI50 (EKVX): > 100 µM (inactive) | GI50 (NCI-H226): > 100 µM (inactive) | GI50 (SK-OV-3): > 100 µM (inactive) | GI50 (SNB-19): > 100 µM (inactive) | GI50 (UACC-257): > 100 µM (inactive) | GI50 (K562): > 100 µM (inactive) | GI50 (HCT-15): > 100 µM | GI50 (TK-10): > 100 µM (inactive) | GI50 (ACHN): > 100 µM (inactive) | GI50 (DMS-273): > 100 µM (inactive) | GI50 (RPMI-8226): > 100 µM (inactive) | GI50 (OVCAR-8): > 100 µM (inactive) | GI50 (UO-31): > 100 µM (inactive) | GI50 (A498): > 100 µM (inactive) | GI50 (NCI-H23): > 100 µM (inactive) | GI50 (LOX IMVI): > 100 µM (inactive) | GI50 (A549): > 100 µM (inactive) | GI50 (M19-MEL): > 100 µM (inactive) | GI50 (U-251): > 100 µM (inactive) | GI50 (SN12C): > 100 µM (inactive) | GI50 (M14): > 100 µM (inactive) | GI50 (DLD-1): > 100 µM (inactive) | GI50 (Malme-3M): > 100 µM (inactive) | GI50 (COLO 205): > 100 µM (inactive) | GI50 (NCI-H522): > 100 µM (inactive)
